This note sets out measurements from ChEMBL document CHEMBL1159040, “Synthesis and evaluation of phenylequine for antimalarial activity in vitro and in vivo” (Bioorg Med Chem Lett, 2010).

The subject of data set [1] is Plasmodium falciparum. As to the kind of experiment: Antiplasmodial activity against chloroquine-sensitive Plasmodium falciparum D10 infected in human O+ RBC by parasite LDH assay. The class given is functional, organism-based.
The test system of another data set is KB. As to the kind of experiment: Cytotoxicity against human KB cells. The class given is cell-based.
Data set [2] deals with Plasmodium falciparum. As to the kind of experiment: Antiplasmodial activity against chloroquine-resistant Plasmodium falciparum K1 infected in human O+ erythrocytes by parasite LDH assay. The class given is functional, organism-based.
Data set [3] concerns Plasmodium berghei. As to the kind of experiment: Antiplasmodial activity in chloroquine-sensitive Plasmodium berghei ANKA infected BALB/c mice (Mus musculus) assessed as mean parasitemia at 10 mg/kg, intraperitoneally daily once for 4 days. The class given is functional. Conditions: route intraperitoneal.
Data set [4] concerns Plasmodium yoelii. As to the kind of experiment: Antiplasmodial activity in chloroquine-nonsensitive Plasmodium yoelii infected BALB/c mice (Mus musculus) assessed as inhibition of parasitaemia at 10 mg/kg, intraperitoneally daily once for 4 days. Type of data set: functional. The note with it: ip, 96 h, route intraperitoneal.
The subject of data set [5] is Plasmodium yoelii. The data set can be described thus: Antiplasmodial activity in chloroquine-nonsensitive Plasmodium yoelii infected BALB/c mice (Mus musculus) assessed as inhibition of parasitaemia at 3 mg/kg, intraperitoneally daily once for 4 days. The class given is functional. The note with it: route intraperitoneal.
Data set [6] has as its system Plasmodium yoelii. As to the kind of experiment: Antiplasmodial activity in chloroquine-nonsensitive Plasmodium yoelii infected BALB/c mice (Mus musculus) assessed as inhibition of parasitaemia at 1 mg/kg, intraperitoneally daily once for 4 days. The class given is functional. The note with it: ip, 96 h, route intraperitoneal.
For data set [7], the system named is Plasmodium berghei. As to the kind of experiment: Antiplasmodial activity in chloroquine-sensitive Plasmodium berghei ANKA infected BALB/c mice (Mus musculus) assessed as inhibition of parasitemia at 10 mg/kg, intraperitoneally daily once for 4 days. Type of data set: functional. Conditions: ip, 96 h, route intraperitoneal.
Data set [8] concerns Plasmodium berghei. As to the kind of experiment: Antiplasmodial activity in chloroquine-sensitive Plasmodium berghei ANKA infected BALB/c mice (Mus musculus) assessed as inhibition of parasitemia at 30 mg/kg, intraperitoneally daily once for 4 days. The class given is functional. Conditions: route intraperitoneal.
Data set [9] has as its system Plasmodium berghei. The data set can be described thus: Antiplasmodial activity in chloroquine-sensitive Plasmodium berghei ANKA infected BALB/c mice (Mus musculus) assessed as mean parasitemia at 30 mg/kg, intraperitoneally daily once for 4 days. The note with it: route intraperitoneal. The class given is functional.
Data set [10] relates to Plasmodium yoelii. As to the kind of experiment: Antiplasmodial activity in chloroquine-nonsensitive Plasmodium yoelii infected BALB/c mice (Mus musculus) assessed as inhibition of parasitaemia at 30 mg/kg, intraperitoneally daily once for 4 days. The class given is functional. Conditions: route intraperitoneal.

Regarding `CN(C)Cc1ccccc1CNc1ccnc2ccccc12`, the half-maximal inhibitory concentration (IC50) – broadly, the point on the concentration scale where inhibition reaches its midpoint – came to 106 nM with Plasmodium falciparum [1] and 70.3 nM in the data set with Plasmodium falciparum [2]. Besides, in the data set with KB, the Activity stood at 8.5 µM.

Take `CCN(CC)CCCC(C)Nc1ccnc2cc(Cl)ccc12.O=P(O)(O)O.O=P(O)(O)O` (stereo not drawn) [CHLOROQUINE PHOSPHATE]: the Activity in the data set with Plasmodium berghei [3] worked out at 0%. Also, the inhibition in vivo – broadly, the share of the control response that was lost under treatment – at 10 mg/kg turned out to be 98.1% with Plasmodium yoelii [4] and 100% in the data set on Plasmodium berghei [7]. For the same molecule, in the data set on Plasmodium yoelii [5] (Plasmodium yoelii, ip, 96 h), the inhibition in vivo at 3 mg/kg worked out at 32.7%. The inhibition in vivo at 1 mg/kg with Plasmodium yoelii [6] came to 32.7%.

For `CN(C)Cc1ccccc1CNCCNc1ccnc2cc(Cl)ccc12`, the 50% inhibitory concentration (IC50) came out at 19.5 nM in the data set with Plasmodium falciparum [1] and 9.8 nM in the data set on Plasmodium falciparum [2]. Further, the Activity in the data set on KB amounted to 14 µM.

Consider `CN(C)Cc1ccccc1CNc1ccnc2cc(Cl)ccc12` [PHENYLEQUINE], for which the IC50 in the data set with Plasmodium falciparum [1] is 13.2 nM; in the data set with Plasmodium falciparum [2] it was 6.9 nM. In addition, the “inhibition (INH)” value in the data set with Plasmodium berghei [8] is listed as 100%. The values for the Activity with KB and in the data set on Plasmodium berghei [9] were 70 µM and 0%, respectively.

For the molecule `CN(C)Cc1ccccc1CNc1ccnc2cc(Cl)ccc12.O=C(O)CC(O)(CC(=O)O)C(=O)O` [PHENYLEQUINE DICITRATE], the “inhibition (INH)” value in the data set with Plasmodium yoelii [10] came out at 99.6%; in the data set with Plasmodium yoelii [5] it was 8.9%.

For the molecule `CN(C)Cc1ccccc1CNc1ccnc2cc(Cl)ccc12.Cl.Cl` [PHENYLEQUINE DIHYDROCHLORIDE], the inhibition in vivo at 30 mg/kg was found to be 99.5% in the data set on Plasmodium yoelii [10] (Plasmodium yoelii, ip, 96 h) and 100% in the data set with Plasmodium berghei [8] (Plasmodium berghei, ANKA, ip, 96 h). In addition, in the data set with Plasmodium yoelii [4], the inhibition in vivo at 10 mg/kg was determined as 99.7%. Also, the Activity with Plasmodium berghei [9] was determined as 0%. Further, the “inhibition (INH)” value in the data set with Plasmodium yoelii [5] is recorded as 94.5%.
